Assay results from ChEMBL document CHEMBL5316344, “Homologation of the Alkyl Side Chain of Antimitotic Phenyl 4-(2-Oxo-3-alkylimidazolidin-1-yl)benzenesulfonate Prodrugs Selectively Targeting CYP1A1-Expressing Breast Cancers Improves Their Stability in Rodent Liver Microsomes” (J Med Chem, 2023).

Tests used:
[1] = Biodistribution in muscle of OF1 mouse at 292 kBq, iv administered as C14-lableled compound and assessed as radioactivity and measured at 1 hr post dose by digital autoradiographic analysis; assay type: ADME, organism-based, Muscle tissue; details: in vivo
[2] = Biodistribution in brain of OF1 mouse at 292 kBq, iv administered as C14-lableled compound and assessed as radioactivity and measured at 1 hr post dose by digital autoradiographic analysis; assay type: ADME, organism-based; details: in vivo
[3] = Biodistribution in heart of OF1 mouse at 292 kBq, iv administered as C14-lableled compound and assessed as radioactivity and measured at 1 hr post dose by digital autoradiographic analysis; assay type: ADME, organism-based; details: in vivo
[4] = Biodistribution in lungs of OF1 mouse at 292 kBq, iv administered as C14-lableled compound and assessed as radioactivity and measured at 1 hr post dose by digital autoradiographic analysis; assay type: ADME, organism-based, Lung; details: in vivo
[5] = Biodistribution in liver of OF1 mouse at 292 kBq, iv administered as C14-lableled compound and assessed as radioactivity and measured at 1 hr post dose by digital autoradiographic analysis; assay type: ADME, organism-based; details: in vivo
[6] = Biodistribution in stomach of OF1 mouse at 292 kBq, iv administered as C14-lableled compound and assessed as radioactivity and measured at 1 hr post dose by digital autoradiographic analysis; assay type: ADME, organism-based; details: in vivo
[7] = Biodistribution in kidney of OF1 mouse at 292 kBq, iv administered as C14-lableled compound and assessed as radioactivity and measured at 1 hr post dose by digital autoradiographic analysis; assay type: ADME, organism-based; details: in vivo
[8] = Biodistribution in spleen of OF1 mouse at 292 kBq, iv administered as C14-lableled compound and assessed as radioactivity and measured at 1 hr post dose by digital autoradiographic analysis; assay type: ADME, organism-based; details: in vivo
[9] = Biodistribution in muscle of nude mouse xenografted with human MCF7 cells at 292 kBq, iv administered as C14-lableled compound and assessed as radioactivity and measured at 6 hrs post dose by digital autoradiographic analysis; assay type: ADME, organism-based, Muscle tissue; details: in vivo
[10] = Biodistribution in brain of nude mouse xenografted with human MCF7 cells at 292 kBq, iv administered as C14-lableled compound and assessed as radioactivity and measured at 6 hrs post dose by digital autoradiographic analysis; assay type: ADME, organism-based; details: in vivo
[11] = Biodistribution in heart of nude mouse xenografted with human MCF7 cells at 292 kBq, iv administered as C14-lableled compound and assessed as radioactivity and measured at 6 hrs post dose by digital autoradiographic analysis; assay type: ADME, organism-based; details: in vivo
[12] = Biodistribution in lung of nude mouse xenografted with human MCF7 cells at 292 kBq, iv administered as C14-lableled compound and assessed as radioactivity and measured at 6 hrs post dose by digital autoradiographic analysis; assay type: ADME, organism-based; details: in vivo
[13] = Biodistribution in stomach of nude mouse xenografted with human MCF7 cells at 292 kBq, iv administered as C14-lableled compound and assessed as radioactivity and measured at 6 hrs post dose by digital autoradiographic analysis; assay type: ADME, organism-based; details: in vivo
[14] = Biodistribution in kidney of nude mouse xenografted with human MCF7 cells at 292 kBq, iv administered as C14-lableled compound and assessed as radioactivity and measured at 6 hrs post dose by digital autoradiographic analysis; assay type: ADME, organism-based; details: in vivo
[15] = Biodistribution in spleen of nude mouse xenografted with human MCF7 cells at 292 kBq, iv administered as C14-lableled compound and assessed as radioactivity and measured at 6 hrs post dose by digital autoradiographic analysis; assay type: ADME, organism-based; details: in vivo
[16] = Drug excretion in OF1 mouse feces at 292 kBq, iv administered as C14-lableled compound and assessed as radioactivity and measured at 3 to 6 hrs post dose; assay type: ADME, organism-based; details: in vivo, time 3-6 hrs
[17] = Drug excretion in OF1 mouse urine at 292 kBq, iv administered as C14-lableled compound and assessed as radioactivity and measured at 3 to 6 hrs post dose; assay type: ADME, organism-based; details: in vivo, time 3-6 hrs
[18] = Drug accumulation in tumor of nude mouse xenografted with human MCF7 cells intravenously at 231 kBq, iv administered as C14-lableled compound and assessed as radioactivity and measured at 1 hr post dose by digital autoradiographic analysis; assay type: ADME, organism-based, Neoplasm; details: in vivo
[19] = Drug accumulation in tumor of nude mouse xenografted with human MCF7 cells at 231 kBq, iv administered as C14-lableled compound and assessed as radioactivity and measured at 3 hrs post dose by digital autoradiographic analysis; assay type: ADME, organism-based, Neoplasm; details: in vivo
[20] = Ratio of drug level in tumor to muscle in nude mouse xenografted with human MCF7 cells at 231 kBq, iv administered as C14-lableled compound and assessed as radioactivity and measured at 1 hr post dose; assay type: ADME, organism-based; details: in vivo
[21] = Ratio of drug level in tumor to muscle in nude mouse xenografted with human MCF7 cells at 231 kBq, iv administered as C14-lableled compound and assessed as radioactivity and measured at 3 hrs post dose; assay type: ADME, organism-based; details: in vivo
[22] = Biodistribution in muscle of OF1 mouse at 231 kBq, iv administered as C14-lableled compound and assessed as radioactivity and measured at 1 hr post dose by digital autoradiographic analysis; assay type: ADME, organism-based, Muscle tissue; details: in vivo
[23] = Biodistribution in brain of OF1 mouse at 231 kBq, iv administered as C14-lableled compound and assessed as radioactivity and measured at 1 hr post dose by digital autoradiographic analysis; assay type: ADME, organism-based; details: in vivo
[24] = Biodistribution in heart of OF1 mouse at 231 kBq, iv administered as C14-lableled compound and assessed as radioactivity and measured at 1 hr post dose by digital autoradiographic analysis; assay type: ADME, organism-based; details: in vivo
[25] = Biodistribution in lungs of OF1 mouse at 231 kBq, iv administered as C14-lableled compound and assessed as radioactivity and measured at 1 hr post dose by digital autoradiographic analysis; assay type: ADME, organism-based, Lung; details: in vivo
[26] = Biodistribution in liver of OF1 mouse at 231 kBq, iv administered as C14-lableled compound and assessed as radioactivity and measured at 1 hr post dose by digital autoradiographic analysis; assay type: ADME, organism-based; details: in vivo
[27] = Biodistribution in stomach of OF1 mouse at 231 kBq, iv administered as C14-lableled compound and assessed as radioactivity and measured at 1 hr post dose by digital autoradiographic analysis; assay type: ADME, organism-based; details: in vivo
[28] = Biodistribution in kidney of OF1 mouse at 231 kBq, iv administered as C14-lableled compound and assessed as radioactivity and measured at 1 hr post dose by digital autoradiographic analysis; assay type: ADME, organism-based; details: in vivo
[29] = Biodistribution in spleen of OF1 mouse at 231 kBq, iv administered as C14-lableled compound and assessed as radioactivity and measured at 1 hr post dose by digital autoradiographic analysis; assay type: ADME, organism-based; details: in vivo
[30] = Biodistribution in muscle of nude mouse xenografted with human MCF7 cells at 231 kBq, iv administered as C14-lableled compound and assessed as radioactivity and measured at 3 hrs post dose by digital autoradiographic analysis; assay type: ADME, organism-based, Muscle tissue; details: in vivo
[31] = Biodistribution in brain of nude mouse xenografted with human MCF7 cells at 231 kBq, iv administered as C14-lableled compound and assessed as radioactivity and measured at 3 hrs post dose by digital autoradiographic analysis; assay type: ADME, organism-based; details: in vivo
[32] = Biodistribution in heart of nude mouse xenografted with human MCF7 cells at 231 kBq, iv administered as C14-lableled compound and assessed as radioactivity and measured at 3 hrs post dose by digital autoradiographic analysis; assay type: ADME, organism-based; details: in vivo
[33] = Biodistribution in lungs of nude mouse xenografted with human MCF7 cells at 231 kBq, iv administered as C14-lableled compound and assessed as radioactivity and measured at 3 hrs post dose by digital autoradiographic analysis; assay type: ADME, organism-based, Lung; details: in vivo
[34] = Biodistribution in stomach of nude mouse xenografted with human MCF7 cells at 231 kBq, iv administered as C14-lableled compound and assessed as radioactivity and measured at 3 hrs post dose by digital autoradiographic analysis; assay type: ADME, organism-based; details: in vivo
[35] = Biodistribution in kidney of nude mouse xenografted with human MCF7 cells at 231 kBq, iv administered as C14-lableled compound and assessed as radioactivity and measured at 3 hrs post dose by digital autoradiographic analysis; assay type: ADME, organism-based; details: in vivo
[36] = Biodistribution in spleen of nude mouse xenografted with human MCF7 cells at 231 kBq, iv administered as C14-lableled compound and assessed as radioactivity and measured at 3 hrs post dose by digital autoradiographic analysis; assay type: ADME, organism-based; details: in vivo
[37] = Drug excretion in OF1 mouse feces at 231 kBq, iv administered as C14-lableled compound and assessed as radioactivity and measured at 3 to 6 hrs post dose; assay type: ADME, organism-based; details: in vivo, time 3-6 hrs
[38] = Drug excretion in OF1 mouse urine at 231 kBq, iv administered as C14-lableled compound and assessed as radioactivity and measured at 3 to 6 hrs post dose; assay type: ADME, organism-based; details: in vivo, time 3-6 hrs

SMILES: COc1cc(OS(=O)(=O)c2ccc(N3CCN[14C]3=O)cc2)cc(OC)c1OC
- Drug uptake [1]: Active
- Drug uptake [2]: Active
- Drug uptake [3]: Active
- Drug uptake [4]: Active
- Drug uptake [5]: Active
- Drug uptake [6]: Active
- Drug uptake [7]: Active
- Drug uptake [8]: Active
- Drug uptake [9]: Not Active
- Drug uptake [10]: Not Active
- Drug uptake [11]: Not Active
- Drug uptake [12]: Not Active
- Drug uptake [13]: Not Active
- Drug uptake [14]: Not Active
- Drug uptake [15]: Not Active
- Drug excretion [16]: Active
- Drug excretion [17]: Active

SMILES: CCCCN1CCN(c2ccc(S(=O)(=O)Oc3cc(OC)c(OC)c(OC)c3)cc2)[14C]1=O
- Drug uptake [18]: 1.6%
- Drug uptake [19]: 0.8%
- Ratio [20]: 1.1
- Ratio [21]: 2.5
- Drug uptake [22]: Active
- Drug uptake [23]: Active
- Drug uptake [24]: Active
- Drug uptake [25]: Active
- Drug uptake [26]: Active
- Drug uptake [27]: Active
- Drug uptake [28]: Active
- Drug uptake [29]: Active
- Drug uptake [30]: Not Active
- Drug uptake [31]: Not Active
- Drug uptake [32]: Not Active
- Drug uptake [33]: Not Active
- Drug uptake [34]: Not Active
- Drug uptake [35]: Not Active
- Drug uptake [36]: Not Active
- Drug excretion [37]: Active
- Drug excretion [38]: Active
